The values below come from paper PMC9501525, “Conjugation of a Cationic Cell-Penetrating Peptide with a Novel Kunitzin-like Trypsin Inhibitor: New Insights for Enhancement of Peptide Bioactivities” (Pharmaceutics, 2022).

Peptide text beside a SMILES is read from it.

As usually defined, the IC50 is the concentration needed to halve the response being measured.

Common to all, as to type: cell-based
The test system of data set [1] is H157 human lung cancer cells. The experiment in a line: MTT cell antiproliferation assay. Particulars: 24 h of treatment, serum free medium, 10^−9–10^−4 M. As to the method: (§1) The antiproliferative activities of the synthesized peptides were assessed on six human cancer cell lines (PC-3, H157, H460, H838, MCF-7, U251MG) and two human normal cell lines (HMEC-1 and MRC-5) using the MTT cell viability assay. Human lung cancer cells (H838, H157, and H460) and human prostate cancer cells (PC-3) were cultured in complete growth medium (CGM) (Roswell Park Memorial Institute (RPMI) 1640 Medium (Gibco, Paisley, UK): Fetal bovine serum (FBS) (Gibco, Campinas, Brazil): Penicillin-streptomycin solution (PS) (Gibco, Grand Island, NY, USA) 89/10/1 v/v/v). Human glioblastoma astrocytoma (U251MG) and human breast cancer cell (MCF-7) were cultured in complete growth medium (Dulbecco’s Modified Eagle medium (DMEM) (Gibco, Paisley, UK): FBS: PS 89/10/1 v/v/v). Human microvascular endothelial cells (HMEC-1) and human pulmonary fibroblast cells (MRC-5) were cultured in MCDB131 medium (supplemented with 10% FBS, 1% PS, 10 ng/mL epidermal growth factor, 1 µg/mL hydrocortisone, and 10 mM glutamine) and Eagle’s Minimal Essential Medium (EMEM) (supplemented with 10% FBS and 1% PS), respectively. Cell suspension, containing 8 × 10^3 cells per 100 µL, was first added to 96-well plates for overnight incubation. Then, the adherent cells in the 96-well plates were subject to cell starvation using the serum free medium treatment for at least 4 h to ensure that the cells were all in the same growth cycle. The peptide solutions, with final concentrations of 10^−9–10^−4 M, were prepared with serum free medium and added onto the plate. In addition, Triton X-100 (0.1%) (Sigma-Aldrich, St. Louis, MO, USA) was used as a positive control. After 24 h of administration, the MTT solution was added to the plate and incubated for 2 h. Then, the supernatant was discarded and DMSO was added to dissolve the purple formazan crystals. The absorbance was measured in all wells using the Synergy HT plate reader at a wavelength of 570 nm.
(Tetrazolium assays rely on reduction of a dye to a coloured formazan, in cell work by metabolically active cells.)

For data set [2], the system named is H460 human lung cancer cells. The experiment in a line: MTT cell antiproliferation assay. Conditions: 24 h of treatment, serum free medium, 10^−9–10^−4 M. As to the method: as §1
Data set [3] has as its system H838 human lung cancer cells. The experiment in a line: MTT cell antiproliferation assay. Particulars: 24 h of treatment, serum free medium, 10^−9–10^−4 M. As to the method:
as §1

The test system of data set [4] is HMEC-1 human microvascular endothelial cells. The experiment in a line: MTT cell antiproliferation assay. Conditions: HMEC-1 normal cells, 24 h of treatment, 10^−9–10^−4 M. As to the method:
as §1

For data set [5], the system named is MCF-7 human breast cancer cells. Put plainly: MTT cell antiproliferation assay. Conditions: MCF-7, MTT, 24 h of treatment, serum free medium, 10^−9–10^−4 M. The method, then: as §1
Data set [6] deals with PC-3 human prostate cancer cells. The experiment in a line: MTT cell antiproliferation assay. Particulars: PC-3, MTT, 24 h of treatment, serum free medium, 10^−9–10^−4 M. As to the method: as §1
Data set [7] concerns U251MG human glioblastoma cells. Put plainly: MTT cell antiproliferation assay. Particulars: 24 h of treatment, serum free medium, 10^−9–10^−4 M. As to the method:
as §1

Data set [8] relates to MRC-5 human pulmonary fibroblast cells. The experiment in a line: LDH cytotoxicity assay. Particulars: MRC-5, 24 h, highest test concentration 100 µM; relative to lysis buffer maximum. As to the method: A CyQUANT™ LDH Cytotoxicity Detection Kit (Thermo Fisher Scientific, Waltham, MA, USA) was used to detect the LDH released from human microvascular endothelial cell line (HMEC-1) and human pulmonary fibroblast cell line (MRC-5). Cells were cultured as for the MTT antiproliferation assay described previously. After incubation, the peptide solutions at the same concentrations as in the previous method were added to the cells for further incubation of 24 h. Among these, the positive control group, representing the maximal LDH release, was obtained from the 10 × lysis buffer supplied in the kit. The lysis buffer was added to the control group and co-cultured for 45 min, while deionized water was added to the spontaneous LDH release control. Subsequently, the same volume of sample as the reaction mixture was withdrawn, added into a new 96-well plate, and mixed well. After co-culturing under dark conditions for 30 min, an equal amount of stop solution was added to stop the reaction. Absorbance values of all experimental groups were measured at wavelengths of 490 and 680 nm using the Synergy HT plate reader.

Turning to `CC(C)C[C@H](NC(=O)[C@H](CCCCN)NC(=O)[C@H](C)NC(=O)[C@H](C)NC(=O)CNC(=O)CNC(=O)[C@H](CCCNC(=N)N)NC(=O)[C@H](CCCNC(=N)N)NC(=O)[C@H](CCCNC(=N)N)NC(=O)[C@H](CCC(N)=O)NC(=O)[C@H](CCCNC(=N)N)NC(=O)[C@H](CCCNC(=N)N)NC(=O)[C@H](CCCCN)NC(=O)[C@H](CCCCN)NC(=O)[C@@H](N)CCCNC(=N)N)C(=O)N1CCC[C@H]1C(=O)N[C@@H](Cc1ccccc1)C(=O)N[C@@H](CCCNC(=N)N)C(=O)N[C@H]1CSSC[C@@H](C(=O)O)NC(=O)[C@H](Cc2ccccc2)NC(=O)[C@H](C)NC(=O)[C@H](C)NC(=O)[C@H](Cc2ccccc2)NC1=O` [TAT-F9-KOV2] (HELM PEPTIDE1{R.K.K.R.R.Q.R.R.R.G.G.A.A.K.L.P.F.R.C.F.A.A.F.C}$PEPTIDE1,PEPTIDE1,19:R3-24:R3$$$V2.0), the half-inhibitory concentration (IC50) in data set [1] was determined as 2.2 µM; in data set [2] it was 5.1 µM; in data set [3], 9.9 µM; in data set [4] it was 98.1 µM; in data set [5] it was 11.7 µM; in data set [6] it was 44.3 µM. In data set [7], the IC50 was found to be 7.6 µM. For the same compound, the LDH release result in data set [8] is given as “more than 10%”.
In the case of `CC(C)C[C@H](NC(=O)[C@H](CCCCN)NC(=O)[C@H](C)NC(=O)[C@H](C)NC(=O)CNC(=O)CNC(=O)[C@H](CCCNC(=N)N)NC(=O)[C@H](CCCNC(=N)N)NC(=O)[C@H](CCCNC(=N)N)NC(=O)[C@H](CCC(N)=O)NC(=O)[C@H](CCCNC(=N)N)NC(=O)[C@H](CCCNC(=N)N)NC(=O)[C@H](CCCCN)NC(=O)[C@H](CCCCN)NC(=O)[C@@H](N)CCCNC(=N)N)C(=O)N1CCC[C@H]1C(=O)N[C@@H](Cc1ccccc1)C(=O)N[C@@H](CCCNC(=N)N)C(=O)N[C@H]1CSSC[C@@H](C(=O)O)NC(=O)[C@H](Cc2ccccc2)NC(=O)[C@H](C)NC(=O)[C@H](C)NC(=O)[C@H](CCCCN)NC1=O` [TAT-KOV2] (HELM PEPTIDE1{R.K.K.R.R.Q.R.R.R.G.G.A.A.K.L.P.F.R.C.K.A.A.F.C}$PEPTIDE1,PEPTIDE1,19:R3-24:R3$$$V2.0), the IC50 was found to be 45.8 µM in data set [1]; 49.2 µM in data set [2]; 92.4 µM in data set [3]; 166 µM in data set [4]; 96.8 µM in data set [6].
